Reference: article PMC7377361, “Pressurized DNA state inside herpes capsids—A novel antiviral target” (PLoS Pathogens, 2020)
Where no end group is shown, it is not given here.

Tests used:
free dsDNA = experiment: SAXS of free (bulk) DNA condensed by added compound; settings: free dsDNA in TM-buffer, N/P ratio 1.5, 15, 23 and 37°C
Description: To determine if our DNA condensing compounds target pressurized intracapsid DNA in HSV-1 virions, we developed a three-step SAXS assay. In the first step, we confirmed the ability of compounds DAB-Am-4, bPEI 600, and Arg^5+ to condense the dsDNA in solution. We measured DNA-DNA spacing (ds) in bulk DNA solution in TM-buffer (i.e. free DNA without the capsid), where DNA is condensed by the added compound. This bulk DNA ds-measurement allows for quick prescreening with an in-house SAXS to determine if compounds are capable of binding to dsDNA and reducing DNA-DNA spacing below the physiologic ds-value for DNA packaged in a viral capsid (ds* = 31Å for HSV-1). […] The Bragg spacing, dBr, and the actual distance between helices, ds, are related by ds = 2dBr/sqrt(3) (see details in Materials and Methods). […] Compound concentrations were scaled proportionally with DNA concentration in the sample to correspond to the N/P ratio of 1.5, where N provides the number of positively charged amine groups on the polyamine compound, and P provides the number of negatively charged phosphate groups on the DNA. An N/P ratio of ~1–1.5 was previously shown to be sufficient for DNA condensation with polycationic amines.
For bulk DNA measurements with in-house SAXS, concentrated polycation solutions were added to 1 mg/mL free DNA in small increments of concentration. […]

HSV-1 C-capsids = experiment: Reconstituted nuclei-capsid MOA-assay, ultrathin-sectioning EM of DNA ejection; assay type: biochemical; settings: 37°C, 40 min; DAB-Am-4 58.5 μM, bPEI 600 39 μM, Arg^5+ 25 μM (N/P 1.5)
Procedure: Once the integrity and functionality of the reconstituted nuclei-capsid system for MOA testing was established, we applied a stringent test of the antiviral activity of each compound. We used ultrathin-sectioning EM to visualize DNA injection from HSV-1 capsids into isolated nuclei with DAB-Am-4 (58.5 μM), bPEI 600 (39 μM), and Arg^5+(25 μM). Compound concentrations corresponded to an N/P ratio of 1.5 (scaled proportionally to virus concentration, as described above) (Fig 4). Purified DNA-filled C-capsids were incubated with isolated rat liver nuclei in the presence of cell cytosol supplemented with ATP regeneration system for 40 min at 37°C, providing optimum conditions, found to maximize capsid binding to NPCs with subsequent DNA ejection. […] Only capsids that appeared bound to the nuclear membrane are included in the statistics (more than 790 nuclei-bound capsids and over 140 nuclei were counted for each sample analysis, providing good statistics). [Note that micrographs shown in Raw 1 of Fig 4 are lower magnification images (13,500X) which show an area around a nuclear membrane with empty and DNA-filled capsids. For our analysis of capsids bound to NPCs, we only used higher magnification images (25,000X) shown in Raw 2, to identify capsids that were associated with visible NPCs. A larger collection of these EM-micrographs at magnification 25,000X with and without different compounds added is shown in a supporting raw data file (S5 Fig).]
We built an in vitro viral HSV-1 DNA translocation system in which the HSV-1 genome was released into nucleoplasm in a homogenate solution mimicking the cytoplasm environment; see details in previously described protocol in ref.[41]. In a typical system, rat liver cell nuclei were incubated with C-capsids (HSV-1 or GFP-labeled HSV-1) in solution containing: (i) cytosol, (ii) BSA, (iii) ATP regeneration system; see details in ref.[41]. The system was incubated at 37°C for 40 min, sufficient for capsid binding to nuclei. For inhibition studies, wheat germ agglutinin (WGA) was preincubated with the nuclei prior to addition of C-capsids. For compound-induced inhibition of DNA ejection studies, C-capsids were preincubated with the polyvalent cationic agents at the concentrations described in the main text before adding capsids to nuclei.
After incubation of nuclei with C-capsids, the samples were washed once with CBB buffer (1,000 rpm for 10 min in a microcentrifuge). The supernatant was then removed and replaced with a fixative (2.5% EM-grade glutaraldehyde and 2.0% EM-grade formaldehyde in 0.1 M sodium cacodylate buffer, pH 7.4) for 3 hours at 4 °C. The fixative was then removed, replaced briefly with buffer, and then replaced with 1% osmium tetroxide in buffer for 90 minutes. Each sample was then subjected to 10-minute buffer rinse, after which it was placed in 1% aqueous uranyl acetate and left overnight. The next day, each sample was dehydrated via a graded ethanol series, culminating in propylene oxide. Following a graded propylene oxide; Epon812 series, the nuclear pellets were embedded in Epon812 prior to cutting. Ultrathin (ca. 90 nm) Epon sections on grids were stained with 1% aqueous uranyl acetate and lead citrate. After the grids dried, areas of interest were imaged at 120 kV, spot 3 using a Tietz 2kx2k camera mounted on a Philips/FEI (now Thermo Fisher FEI) CM200 transmission electron microscope.

| Compound | DNA-DNA interaxial spacing ds (free dsDNA) | Capsids bound to NPC: DNA-filled capsids (HSV-1 C-capsids) [%] | Capsids bound to NPC: DNA-filled capsids (count) (HSV-1 C-capsids) | Capsids bound to NPC: Empty capsids (HSV-1 C-capsids) [%] | Capsids bound to NPC: Empty capsids (count) (HSV-1 C-capsids) |
| --- | --- | --- | --- | --- | --- |
| RRRRR [Arg^5+] | below 31 Å | 50 | 399 | 50 | 398 |
| NCCCN(CCCN)CCCCN(CCCN)CCCN [DAB-Am-4] | below 31 Å | 60 | 479 | 40 | 313 |
